Measured values taken from patent US9738634B2, “Heterocyclic amide compound and herbicide” (SYNGENTA PARTICIPATIONS AG, priority 2013, dated 2017).

Assays:
Format in all cases: in vivo
[1] = tested on: barnyard grass; assay: Test Example 1: weedkilling efficacy, preemergent weed treatment in the submerged state; A: barnyard grass; settings: treatment dosage 108.36 g/ha
Method in brief: (§1)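 Pots of alluvial soil flooded 4 cm deep, sown with barnyard grass, bulrush and oval-leafed pondweed and transplanted with 2.5-leaf rice. Emulsified compound applied to the water surface on sowing day at stated g/ha; greenhouse 25–30 °C, effects assessed 3 weeks after treatment.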

[2] = tested on: bulrush; assay: Test Example 1: weedkilling efficacy, preemergent weed treatment in the submerged state; B: bulrush; settings: treatment dosage 108.36 g/ha
Method in brief: as §1

[3] = tested on: oval-leafed pondweed; assay: Test Example 1: weedkilling efficacy, preemergent weed treatment in the submerged state; C: oval-leafed pondweed; settings: treatment dosage 108.36 g/ha
Method in brief: as §1

[4] = tested on: transplanted rice; assay: Test Example 1: preemergent weed treatment in the submerged state, effect on crop; a: transplanted rice; settings: treatment dosage 108.36 g/ha
Method in brief: as §1

[5] = tested on: barnyard grass; assay: Test Example 2: weedkilling efficacy, growth period weed treatment in the submerged state; A: barnyard grass; settings: treatment dosage 108.36 g/ha
Method in brief: (§2)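 Barnyard grass, bulrush and oval-leafed pondweed sown in alluvial soil under 4 cm flooding, greenhouse 25 to 30° C. At 1-2 leaf stage, water-diluted emulsion applied to the water surface at stated g/ha dosages; effects scored 3 weeks later.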

[6] = tested on: bulrush; assay: Test Example 2: weedkilling efficacy, growth period weed treatment in the submerged state; B: bulrush; settings: treatment dosage 108.36 g/ha
Method in brief: as §2

[7] = tested on: oval-leafed pondweed; assay: Test Example 2: weedkilling efficacy, growth period weed treatment in the submerged state; C: oval-leafed pondweed; settings: treatment dosage 108.36 g/ha
Method in brief: as §2

[8] = tested on: crabgrass; assay: Test Example 3: weedkilling efficacy through soil treatment; D: crabgrass; settings: treatment dosage 135.45 g/ha
Method in brief: (§3)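 Crop and weed responses were judged three weeks after a uniform surface spray of the water-diluted emulsion at the given g/ha rate. Seeds sat beneath about 1.5 cm of sterilized diluvial soil, and boxes stood in a greenhouse at 25 to 30° C.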

[9] = tested on: green foxtail; assay: Test Example 3: weedkilling efficacy through soil treatment; E: green foxtail; settings: treatment dosage 135.45 g/ha
Method in brief: as §3

[10] = tested on: black-grass; assay: Test Example 3: weedkilling efficacy through soil treatment; H: black-grass; settings: treatment dosage 135.45 g/ha
Method in brief: as §3

[11] = tested on: Italian ryegrass; assay: Test Example 3: weedkilling efficacy through soil treatment; I: Italian ryegrass; settings: treatment dosage 135.45 g/ha
Method in brief: as §3

[12] = tested on: Indian mallow; assay: Test Example 3: weedkilling efficacy through soil treatment; K: Indian mallow; settings: treatment dosage 135.45 g/ha
Method in brief: as §3

[13] = tested on: redroot pigweed; assay: Test Example 3: weedkilling efficacy through soil treatment; L: redroot pigweed; settings: treatment dosage 135.45 g/ha
Method in brief: as §3

[14] = tested on: fig-leafed goosefoot; assay: Test Example 3: weedkilling efficacy through soil treatment; M: fig-leafed goosefoot; settings: treatment dosage 135.45 g/ha
Method in brief: as §3

[15] = tested on: chickweed; assay: Test Example 3: weedkilling efficacy through soil treatment; N: chickweed; settings: treatment dosage 135.45 g/ha
Method in brief: as §3

[16] = tested on: birds-eye speedwell; assay: Test Example 3: weedkilling efficacy through soil treatment; p: birds-eye speedwell; settings: treatment dosage 135.45 g/ha
Method in brief: as §3

[17] = tested on: directly sown rice; assay: Test Example 3: soil treatment, effect on crop; b: directly sown rice; settings: treatment dosage 135.45 g/ha
Method in brief: as §3

[18] = tested on: corn; assay: Test Example 3: soil treatment, effect on crop; c: corn; settings: treatment dosage 135.45 g/ha
Method in brief: as §3

[19] = tested on: soybean; assay: Test Example 3: soil treatment, effect on crop; d: soybean; settings: treatment dosage 135.45 g/ha
Method in brief: as §3

[20] = tested on: wheat; assay: Test Example 3: soil treatment, effect on crop; e: wheat; settings: treatment dosage 135.45 g/ha
Method in brief: as §3

[21] = tested on: crabgrass; assay: Test Example 4: weedkilling efficacy by foliar treatment; D: crabgrass; settings: treatment dosage 135.45 g/ha
Method: (§4) Testing of Weedkilling Efficacy by Foliar Treatment
(§5) Sterilized diluvial soil was introduced into 21 cm long, 13 cm wide, 7 cm deep plastic boxes, and seeds of crabgrass, green foxtail, barnyard grass, wild oat, black-grass, Italian ryegrass, common wind-grass, Indian mallow, redroot pigweed, fig-leafed goosefoot, chickweed, catchweed, birds-eye speedwell, corn, soybean, rice, wheat, beet and rapeseed were each spot-sown, and covered with about 1.5 cm of soil, then the plants were grown in a greenhouse at 25 to 30° C.
(§6) After they had grown for 14 days, emulsions of compounds of the present invention prepared according to compounding example 2 were diluted with water to give the specified dosages, and applied uniformly onto the stem and leaf parts with a small sprayer. 3 weeks after the pesticide treatment the effect on each type of plant was investigated on the basis of the assessment criteria of test example 1.
(§7) A: barnyard grass, B: bulrush, C: oval-leafed pondweed, D: crabgrass, E: green foxtail, F: barnyard grass, G: wild oat, H: black-grass, I: Italian ryegrass, J: common wind-grass, K: Indian mallow, L: redroot pigweed, M: fig-leafed goosefoot, N: chickweed, O: catchweed, p: birds-eye speedwell, a: transplanted rice, b: directly sown rice, c: corn, d: soybean, e: wheat, f: beet, g: rapeseed
(§8) Further, pesticide dosage (g/ha) indicates the concentration regulated such that treatment was with only the stated number of grams (g), when calculated per hectare (ha).

[22] = tested on: green foxtail; assay: Test Example 4: weedkilling efficacy by foliar treatment; E: green foxtail; settings: treatment dosage 135.45 g/ha
Method: as §4, §5, §6, §7, §8

[23] = tested on: black-grass; assay: Test Example 4: weedkilling efficacy by foliar treatment; H: black-grass; settings: treatment dosage 135.45 g/ha
Method: as §4, §5, §6, §7, §8

[24] = tested on: Italian ryegrass; assay: Test Example 4: weedkilling efficacy by foliar treatment; I: Italian ryegrass; settings: treatment dosage 135.45 g/ha
Method: as §4, §5, §6, §7, §8

[25] = tested on: Indian mallow; assay: Test Example 4: weedkilling efficacy by foliar treatment; K: Indian mallow; settings: treatment dosage 135.45 g/ha
Method: as §4, §5, §6, §7, §8

[26] = tested on: redroot pigweed; assay: Test Example 4: weedkilling efficacy by foliar treatment; L: redroot pigweed; settings: treatment dosage 135.45 g/ha
Method: as §4, §5, §6, §7, §8

[27] = tested on: fig-leafed goosefoot; assay: Test Example 4: weedkilling efficacy by foliar treatment; M: fig-leafed goosefoot; settings: treatment dosage 135.45 g/ha
Method: as §4, §5, §6, §7, §8

[28] = tested on: chickweed; assay: Test Example 4: weedkilling efficacy by foliar treatment; N: chickweed; settings: treatment dosage 135.45 g/ha
Method: as §4, §5, §6, §7, §8

[29] = tested on: catchweed; assay: Test Example 4: weedkilling efficacy by foliar treatment; O: catchweed; settings: treatment dosage 135.45 g/ha
Method: as §4, §5, §6, §7, §8

[30] = tested on: birds-eye speedwell; assay: Test Example 4: weedkilling efficacy by foliar treatment; p: birds-eye speedwell; settings: treatment dosage 135.45 g/ha
Method: as §4, §5, §6, §7, §8

[31] = tested on: directly sown rice; assay: Test Example 4: foliar treatment, effect on crop; b: directly sown rice; settings: treatment dosage 135.45 g/ha
Method: as §4, §5, §6, §7, §8

[32] = tested on: corn; assay: Test Example 4: foliar treatment, effect on crop; c: corn; settings: treatment dosage 135.45 g/ha
Method: as §4, §5, §6, §7, §8

[33] = tested on: soybean; assay: Test Example 4: foliar treatment, effect on crop; d: soybean; settings: treatment dosage 135.45 g/ha
Method: as §4, §5, §6, §7, §8

[34] = tested on: wheat; assay: Test Example 4: foliar treatment, effect on crop; e: wheat; settings: treatment dosage 135.45 g/ha
Method: as §4, §5, §6, §7, §8

[35] = tested on: beet; assay: Test Example 4: foliar treatment, effect on crop; f: beet; settings: treatment dosage 135.45 g/ha
Method: as §4, §5, §6, §7, §8

SMILES: CC1=C(c2ccccc2)C(=O)N(C(C)(C)C(=O)Nc2cccc(C)n2)CO1 [B-2-53]
- A (barnyard grass) weedkilling efficacy grade [1]: 5 (weed kill ratio 90% or more, (practically complete withering))
- B (bulrush) weedkilling efficacy grade [2]: 5 (weed kill ratio 90% or more, (practically complete withering))
- C (oval-leafed pondweed) weedkilling efficacy grade [3]: 5 (weed kill ratio 90% or more, (practically complete withering))
- a (transplanted rice) effect on crop grade [4]: 0 (weed kill ratio 5% or less (practically no effect))
- A (barnyard grass) weedkilling efficacy grade [5]: 3 (weed kill ratio 40% or more, less than 70%)
- B (bulrush) weedkilling efficacy grade [6]: 5 (weed kill ratio 90% or more, (practically complete withering))
- C (oval-leafed pondweed) weedkilling efficacy grade [7]: 4 (weed kill ratio 70% or more, less than 90%)
- D (crabgrass) weedkilling efficacy grade [8]: 5 (weed kill ratio 90% or more, (practically complete withering))
- E (green foxtail) weedkilling efficacy grade [9]: 5 (weed kill ratio 90% or more, (practically complete withering))
- H (black-grass) weedkilling efficacy grade [10]: 5 (weed kill ratio 90% or more, (practically complete withering))
- I (Italian ryegrass) weedkilling efficacy grade [11]: 5 (weed kill ratio 90% or more, (practically complete withering))
- K (Indian mallow) weedkilling efficacy grade [12]: 0 (weed kill ratio 5% or less (practically no effect))
- L (redroot pigweed) weedkilling efficacy grade [13]: 3 (weed kill ratio 40% or more, less than 70%)
- M (fig-leafed goosefoot) weedkilling efficacy grade [14]: 4 (weed kill ratio 70% or more, less than 90%)
- N (chickweed) weedkilling efficacy grade [15]: 0 (weed kill ratio 5% or less (practically no effect))
- P (birds-eye speedwell) weedkilling efficacy grade [16]: 5 (weed kill ratio 90% or more, (practically complete withering))
- b (directly sown rice) effect on crop grade [17]: 3 (weed kill ratio 40% or more, less than 70%)
- c (corn) effect on crop grade [18]: 0 (weed kill ratio 5% or less (practically no effect))
- d (soybean) effect on crop grade [19]: 0 (weed kill ratio 5% or less (practically no effect))
- e (wheat) effect on crop grade [20]: 2 (weed kill ratio 20% or more, less than 40%)
- D (crabgrass) weedkilling efficacy grade [21]: 5 (weed kill ratio 90% or more, (practically complete withering))
- E (green foxtail) weedkilling efficacy grade [22]: 5 (weed kill ratio 90% or more, (practically complete withering))
- H (black-grass) weedkilling efficacy grade [23]: 5 (weed kill ratio 90% or more, (practically complete withering))
- I (Italian ryegrass) weedkilling efficacy grade [24]: 5 (weed kill ratio 90% or more, (practically complete withering))
- K (Indian mallow) weedkilling efficacy grade [25]: 4 (weed kill ratio 70% or more, less than 90%)
- L (redroot pigweed) weedkilling efficacy grade [26]: 4 (weed kill ratio 70% or more, less than 90%)
- M (fig-leafed goosefoot) weedkilling efficacy grade [27]: 3 (weed kill ratio 40% or more, less than 70%)
- N (chickweed) weedkilling efficacy grade [28]: 1 (weed kill ratio 5% or more, less than 20%)
- O (catchweed) weedkilling efficacy grade [29]: 3 (weed kill ratio 40% or more, less than 70%)
- P (birds-eye speedwell) weedkilling efficacy grade [30]: 4 (weed kill ratio 70% or more, less than 90%)
- b (directly sown rice) effect on crop grade [31]: 4 (weed kill ratio 70% or more, less than 90%)
- c (corn) effect on crop grade [32]: 1 (weed kill ratio 5% or more, less than 20%)
- d (soybean) effect on crop grade [33]: 4 (weed kill ratio 70% or more, less than 90%)
- e (wheat) effect on crop grade [34]: 1 (weed kill ratio 5% or more, less than 20%)
- f (beet) effect on crop grade [35]: 0 (weed kill ratio 5% or less (practically no effect))
